Experimental data: patent publication US20260256728A1, “TREATMENT FOR ASYMPTOMATIC STARGARDT DISEASE PATIENTS” (priority 2024, published 2026)

Experiment: TEASE-1 safety, adverse events

## [2H]C([2H])([2H])C(/C=C/C=C(C)/C=C/C1=C(C)CCCC1(C)C)=C\COC(C)=O [gildeuretinol acetate]
14 mg (N = 15)
  Patients experiencing event (%): Death: 1 (6.7)
  Patients experiencing event (%): Influenza: 0
  Patients experiencing event (%): Vulvovaginal candidiasis: 0
  Patients experiencing event (%): Wrist fracture: 0
  Patients experiencing event (%): Xanthelasma: 0
24 mg (N = 15)
  Patients experiencing event (%): Death: 0
  Patients experiencing event (%): Influenza: 1 (6.7)
  Patients experiencing event (%): Vulvovaginal candidiasis: 1 (6.7)
  Patients experiencing event (%): Wrist fracture: 0
  Patients experiencing event (%): Xanthelasma: 1 (6.7)
Crossover (N = 10)
  Patients experiencing event (%): Abdominal discomfort: 1 (10.0)
  Patients experiencing event (%): Abdominal distension: 0
  Patients experiencing event (%): Abdominal pain upper: 0
  Patients experiencing event (%): Abnormal dreams: 0
  Patients experiencing event (%): Alanine aminotransferase increased: 1 (10.0)
  Patients experiencing event (%): Alopecia: 0
  Patients experiencing event (%): Ankle fracture: 0
  Patients experiencing event (%): Arthralgia: 1 (10.0)
  Patients experiencing event (%): Arthritis: 1 (10.0)
  Patients experiencing event (%): Aspartate aminotransferase increased: 1 (10.0)
  Patients experiencing event (%): Back injury: 0
  Patients experiencing event (%): Back pain: 0
  Patients experiencing event (%): Blepharospasm: 1 (10.0)
  Patients experiencing event (%): Blood cholesterol increased: 0
  Patients experiencing event (%): Blood creatinine increased: 0
  Patients experiencing event (%): Blood iron decreased: 0
  Patients experiencing event (%): Blood pressure increased: 0
  Patients experiencing event (%): Blood triglycerides increased: 0
  Patients experiencing event (%): Bowel movement irregularity: 0
  Patients experiencing event (%): Bronchitis: 0
  Patients experiencing event (%): Cartilage injury: 0
  Patients experiencing event (%): Conjunctival laceration: 0
  Patients experiencing event (%): Conjunctivitis: 0
  Patients experiencing event (%): Constipation: 0
  Patients experiencing event (%): Cough: 0
  Patients experiencing event (%): Death: 0
  Patients experiencing event (%): Depression: 0
  Patients experiencing event (%): Diarrhoea: 1 (10.0)
  Patients experiencing event (%): Diplopia: 0
  Patients experiencing event (%): Dry eye: 0
  Patients experiencing event (%): Dry mouth: 0
  Patients experiencing event (%): Dry skin: 0
  Patients experiencing event (%): Ear discomfort: 0
  Patients experiencing event (%): Ear pain: 0
  Patients experiencing event (%): Eczema: 1 (10.0)
  Patients experiencing event (%): Electrocardiogram abnormal: 1 (10.0)
  Patients experiencing event (%): Erythema: 0
  Patients experiencing event (%): Eye irritation: 0
  Patients experiencing event (%): Eye pain: 0
  Patients experiencing event (%): Eye pruritus: 0
  Patients experiencing event (%): Face injury: 0
  Patients experiencing event (%): Faeces soft: 0
  Patients experiencing event (%): Fall: 0
  Patients experiencing event (%): Gastroenteritis: 1 (10.0)
  Patients experiencing event (%): Hair texture abnormal: 0
  Patients experiencing event (%): Hand fracture: 0
  Patients experiencing event (%): Headache: 0
  Patients experiencing event (%): Hordeolum: 0
  Patients experiencing event (%): Hypertension: 0
  Patients experiencing event (%): Hypobarism: 0
  Patients experiencing event (%): Hypothyroidism: 0
  Patients experiencing event (%): Hysterectomy: 0
  Patients experiencing event (%): Inflammation: 0
  Patients experiencing event (%): Influenza: 0
  Patients experiencing event (%): Insomnia: 0
  Patients experiencing event (%): Intracranial pressure increased: 0
  Patients experiencing event (%): Irritability: 0
  Patients experiencing event (%): Jaw operation: 0
  Patients experiencing event (%): Knee arthroplasty: 0
  Patients experiencing event (%): Laryngitis: 0
  Patients experiencing event (%): Lip swelling: 0
  Patients experiencing event (%): Low density lipoprotein increased: 0
  Patients experiencing event (%): Muscle spasms: 0
  Patients experiencing event (%): Muscle strain: 0
  Patients experiencing event (%): Musculoskeletal pain: 0
  Patients experiencing event (%): Nasopharyngitis: 1 (10.0)
  Patients experiencing event (%): Nausea: 0
  Patients experiencing event (%): Neck pain: 0
  Patients experiencing event (%): Nephrolithiasis: 1 (10.0)
  Patients experiencing event (%): Nerve compression: 0
  Patients experiencing event (%): Neuralgia: 0
  Patients experiencing event (%): Obsessive-compulsive disorder: 0
  Patients experiencing event (%): Oropharyngeal pain: 1 (10.0)
  Patients experiencing event (%): Osteoporosis: 0
  Patients experiencing event (%): Overall: 8 (80)
  Patients experiencing event (%): Pain: 0
  Patients experiencing event (%): Pain in extremity: 0
  Patients experiencing event (%): Pain in jaw: 0
  Patients experiencing event (%): Peripheral coldness: 0
  Patients experiencing event (%): Pharyngitis streptococcal: 0
  Patients experiencing event (%): Photophobia: 0
  Patients experiencing event (%): Photopsia: 0
  Patients experiencing event (%): Plantar fasciitis: 0
  Patients experiencing event (%): Pleurisy: 1 (10.0)
  Patients experiencing event (%): Pneumonia: 1 (10.0)
  Patients experiencing event (%): Premenstrual syndrome: 0
  Patients experiencing event (%): Punctate keratitis: 0
  Patients experiencing event (%): Pyrexia: 0
  Patients experiencing event (%): Radius fracture: 0
  Patients experiencing event (%): Rash: 1 (10.0)
  Patients experiencing event (%): Rotator cuff syndrome: 0
  Patients experiencing event (%): Sialoadenitis: 0
  Patients experiencing event (%): Sinus congestion: 0
  Patients experiencing event (%): Sinusitis: 0
  Patients experiencing event (%): Sjogren's syndrome: 0
  Patients experiencing event (%): Subdural haematoma: 0
  Patients experiencing event (%): Syncope: 0
  Patients experiencing event (%): Tendonitis: 0
  Patients experiencing event (%): Thoracic outlet syndrome: 0
  Patients experiencing event (%): Tongue dry: 0
  Patients experiencing event (%): Tooth abscess: 0
  Patients experiencing event (%): Tooth extraction: 0
  Patients experiencing event (%): Toothache: 0
  Patients experiencing event (%): Vision blurred: 1 (10.0)
  Patients experiencing event (%): Visual field defect: 1 (10.0)
  Patients experiencing event (%): Visual impairment: 0
  Patients experiencing event (%): Vitamin B12 deficiency: 0
  Patients experiencing event (%): Vitamin D decreased: 0
  Patients experiencing event (%): Vitreous floaters: 1 (10.0)
  Patients experiencing event (%): Vulvovaginal candidiasis: 0
  Patients experiencing event (%): Wrist fracture: 0
  Patients experiencing event (%): Xanthelasma: 0
In vivo
  association between treatment groups and frequency of adverse events: no association was observed
  changes by physical examination, electrocardiogram, vital signs, hematology, biochemistry and lipid panels: no changes were attributed to gildeuretinol acetate
